Measurements: patent US9206457B2, “Utilization of pharmacological chaperones to improve manufacturing and purification of biologics” (Amicus Therapeutics, Inc., priority 2009, dated 2015)
Residue numbers refer to the chain shown, from its start. Blank lines part the entries; values can stand above or below the compound they belong to.

What was measured:
GCase = molecular target: T1, GCase (Homo sapiens, UniProt P04062); experiment: GCase activity in conditioned media of COS-7 cells transfected with human GBA1 plasmid, 72 h; type: cell-based; conditions: 72 hours expression
T1 construct: expressed in transfected cells; host or cells: COS-7
T1 sequence (P04062 40-536): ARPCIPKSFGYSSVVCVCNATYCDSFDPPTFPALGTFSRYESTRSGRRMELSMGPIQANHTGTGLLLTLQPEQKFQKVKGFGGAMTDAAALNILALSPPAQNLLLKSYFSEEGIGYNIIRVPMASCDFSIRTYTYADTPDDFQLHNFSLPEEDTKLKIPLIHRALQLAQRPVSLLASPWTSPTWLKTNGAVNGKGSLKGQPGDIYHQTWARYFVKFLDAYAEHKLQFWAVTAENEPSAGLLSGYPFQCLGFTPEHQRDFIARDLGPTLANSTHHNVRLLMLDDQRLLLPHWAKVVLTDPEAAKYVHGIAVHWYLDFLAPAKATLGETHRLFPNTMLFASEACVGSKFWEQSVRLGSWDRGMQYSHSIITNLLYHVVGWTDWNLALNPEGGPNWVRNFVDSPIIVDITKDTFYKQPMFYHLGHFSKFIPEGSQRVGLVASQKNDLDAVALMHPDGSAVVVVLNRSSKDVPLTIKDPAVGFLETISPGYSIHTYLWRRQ

α-Gal A [1] = molecular target: T2, α-Gal A (Homo sapiens, UniProt P06280); experiment: α-Gal A activity in conditioned media of COS-7 cells transfected with GLA plasmid, 72 h; type: cell-based; conditions: 72 hours expression
T2 construct: expressed in transfected cells; host or cells: COS-7
T2 sequence (P06280 32-429): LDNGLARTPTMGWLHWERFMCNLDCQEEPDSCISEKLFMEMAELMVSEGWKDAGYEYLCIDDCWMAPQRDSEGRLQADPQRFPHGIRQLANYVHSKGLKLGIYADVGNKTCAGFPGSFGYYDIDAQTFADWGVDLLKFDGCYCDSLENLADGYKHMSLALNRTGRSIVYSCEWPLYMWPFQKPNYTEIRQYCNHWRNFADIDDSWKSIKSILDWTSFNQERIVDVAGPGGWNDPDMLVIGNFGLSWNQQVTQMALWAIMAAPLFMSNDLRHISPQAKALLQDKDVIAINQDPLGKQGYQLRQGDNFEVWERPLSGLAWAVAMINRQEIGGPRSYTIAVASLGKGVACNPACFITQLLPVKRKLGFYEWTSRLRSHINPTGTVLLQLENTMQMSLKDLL
Procedure: COS-7 cells were transiently transfected with empty vector or a plasmid coding for the α-Gal A gene (GLA). […] After 72-hours of protein expression, the conditioned media from each transfection was harvested, and the level of α-Gal A activity was assessed using the substrate […].

α-Gal A (Fabrazyme®) = molecular target: T3, α-Gal A (Fabrazyme®) (Homo sapiens, UniProt P06280); experiment: SYPRO Orange thermal stability assay (heat denaturation) of α-Gal A; type: binding; conditions: 10 and 100 μM DGJ, pH 7.4
T3 construct: purchased
T3 sequence (P06280 32-429): T2 sequence (P06280 32-429)

α-Gal A [2] = molecular target: T2, α-Gal A; experiment: SYPRO Orange α-Gal A denaturation over time at 37° C.; type: binding; conditions: 50 μM DGJ added at 3 or 6 hours, pH 7.4, 37° C.
α-Gal A [3] = molecular target: T2, α-Gal A; experiment: α-Gal A activity in conditioned media of transiently transfected COS-7 cells, 48 h, concanavalin A capture; type: cell-based; conditions: 100 μM chaperone, 48 hours expression
[4] = molecular target: T4, recombinant human GAA (Myozyme®) (Homo sapiens, UniProt P10253); experiment: SYPRO Orange thermal stability assay (heat denaturation) of GAA; type: binding
T4 construct: purchased Genzyme Corp
Description: The thermal stability assay utilizes heat to induce protein denaturation, which is monitored using a SYPRO Orange dye that fluoresces upon binding to hydrophobic amino acids (which are not exposed in a folded protein).
FIG. 3 depicts the results of a thermal stability assay that utilizes heat to induce protein denaturation, which is monitored using a SYPRO Orange dye that fluoresces upon binding to hydrophobic amino acids (which are not exposed in a folded protein). […] The experiment was conducted at pH 7.4.
Denaturation is monitored using a SYPRO Orange dye that fluoresces upon binding to hydrophobic amino acids (which are not exposed in a folded protein).
The thermal stability was performed at pH 7.4 for two formulations, which corresponds to the pH of the ER.
A thermal stability experiment as generally described in Example 1 was performed on four compositions: […]

[5] = molecular target: T4, recombinant human GAA (Myozyme®); experiment: Residual GAA enzyme activity (4-MU-α-glucose) on extended incubation at 37° C.; type: biochemical; conditions: 50 μM 1-DNJ, pH 7.4, 37° C., over 24 hours
Procedure: FIG. 2A depicts the effects of 1-DNJ-HCl on recombinant human GAA (rhGAA; Myozyme®, Genzyme Corp.) activity at neutral pH (7.4) or lysosomal pH (5.2) at 37° C. GAA activity was evaluated to assess the ability of an ASSC to prolong the activity of rhGAA over time. Myozyme (45 nM) was incubated in pH 7.4 or pH 5.2 buffer with or without 50 μM 1-DNJ at 37° C. over 24 hours. Samples were assayed for GAA enzyme activity using 4-MU-α-glucose at 0, 3, 6 and 24 hours and the residual GAA activity was expressed as % of initial activity.
Residual GAA activity was determined for four formulations:
Activity was measured, based on the % of initial activity (t=0) over 24 hours. Samples were assayed for GAA enzyme activity based on the hydrolysis of the fluorogenic substrate 4-MU-α-glucose at 0, 3, 6 and 24 hours. The GAA activity was expressed as % of initial activity, i.e. residual activity.

[6] = molecular target: T4, recombinant human GAA (Myozyme®); experiment: SYPRO Orange GAA unfolding over time at 37° C.; type: binding; conditions: 50 μM DNJ added at 3 or 6 hours, pH 7.4, 37° C.
α-Glucosidase (GAA) = molecular target: T5, α-Glucosidase (GAA) (Homo sapiens, UniProt P10253); experiment: GAA activity in conditioned media of COS-7 cells transfected with human GAA plasmid, 72 h; type: cell-based; conditions: 72 hours expression
T5 construct: expressed in transfected cells; host or cells: COS-7

[7] = molecular target: T6, acid β-glucosidase (GCase; Cerezyme®) (Homo sapiens, UniProt P04062, R534H); experiment: SYPRO Orange thermal stability assay (heat denaturation) of GCase; type: binding
T6 construct: purchased Genzyme Corp
T6 sequence (P04062 40-536 R534H): T1 sequence (P04062 40-536) with R495H
Procedure: FIG. 4 depicts the results of a thermal stability assay that utilizes heat to induce protein denaturation, which is monitored using a SYPRO Orange dye that fluoresces upon binding to hydrophobic amino acids (which are not exposed in a folded protein). Isofagomine increases acid β-glucosidase thermostability as evident by increases in melting temperature in a dose-dependent manner. The experiment was conducted at pH 7.4.
FIG. 8 depicts the stability of recombinant human GCase (Cerazyme®, Genzyme Corp.) at neutral pH (7.4) or acidic pH (5.2) in the presence or absence of 10 μM of IFG as determined in a thermal stability assay. The thermal stability assay utilizes heat to induce protein denaturation, which is monitored using a SYPRO Orange dye that fluoresces upon binding to hydrophobic amino acids (which are not exposed in a folded protein).
A thermal stability experiment as generally described in Example 1 was performed on three compositions of GCase (Cerezyme®):
A thermal stability experiment as generally described in Examples 1 and 4 was performed on three compositions of GCase (Cerezyme®):
Protein denaturation was monitored using SYPRO Orange dye which fluoresces when bound to exposed hydrophobic amino acids.

[8] = molecular target: T6, acid β-glucosidase (GCase; Cerezyme®); experiment: SYPRO Orange GCase unfolding over time at 37° C.; type: binding
Procedure: FIG. 5 depicts a SYPRO Orange thermal stability experiment to monitor the unfolding of acid β-glucosidase (GCase; Cerezyme®). GCase (2 μM) was incubated in pH 7.4 or pH 5.2 buffer with or without 10 μM IFG at 37° C. and protein unfolding was monitored every hour over 24 hours.
FIG. 9 depicts a SYPRO Orange thermal stability experiment to monitor the unfolding of acid β-glucosidase (GCase; Cerezyme®). GCase was incubated in pH 7.4 or pH 5.2 buffer with or without 10 μM or 100 μM IFG at 37° C., and protein unfolding was monitored every hour over 24 hours.
FIG. 15 depicts that addition of 50 μM IFG at 3 or 6 hours after incubation of GCase (Cerezyme®) in neutral (pH 7.4) buffer at 37° C. prevents further denaturation of the enzyme as measured by SYPRO dye fluorescence.
In this thermal stability experiment, the concentration of IFG was 10 μM in formulation (3).
In this thermal stability experiment, the concentration of IFG was 0, 10 μM, or 100 μM as described above.
The stability of α-Gal A, α-Glucosidase (GAA), and GCase (Cerezyme®) at 37° C. in neutral (pH 7.4) buffer was measured using the SYPRO Orange for 3, 6 or 24 hours.

GCase (Cerezyme®) [9] = molecular target: T7, GCase (Cerezyme®) (Homo sapiens, UniProt P04062, R534H); experiment: GCase activity in human plasma at 37° C. (4-MUG); type: in vitro ADME; conditions: IFG 3 μM, 30 μM, 100 μM, over 4 hours
T7 construct: purchased Genzyme Corp
T7 sequence (P04062 40-536 R534H): T1 sequence (P04062 40-536) with R495H
Procedure: FIG. 10 depicts the effects of IFG on recombinant human GCase (GCase; Cerezyme®, Genzyme Corp.) activity in human plasma at 37° C. GCase activity was evaluated to assess the ability of an ASSC to prolong the activity of GCase in human plasma over time. Cerezyme (0.5 μM) was incubated in human plasma with increasing concentrations of IFG (3 μM, 30 μM, or 100 μM) at 37° C. over 4 hours. Samples were assayed for GCase enzyme activity using 4-MU-β-glucose at 0.25, 0.5, 1, 2 and 4 hours and the residual GCase activity was expressed as % of initial activity.
The activity of GCase (0.5 μM; Cerazyme®) at 37° C. in human plasma was assessed for increasing concentrations of IFG (3 μM, 30 μM, and 100 μM) as a function time using the substrate 4-MUG.

GCase (Cerezyme®) [10] = molecular target: T7, GCase (Cerezyme®); experiment: GCase activity over time in neutral or acidic buffer at 37° C. (4-MUG); type: biochemical; conditions: 1 μM IFG, 10 nM GCase, pH 7.4, 37° C.
acid β-glucosidase = molecular target: T8, acid β-glucosidase (Homo sapiens, UniProt P04062); conditions: 100 μM chaperone, 48 hours expression, COS-7
T8 sequence (P04062 40-536): T1 sequence (P04062 40-536)

Compound: O[C@H]1[C@H](O)CNC[C@@H]1C(F)F [AT3375]
GCase activity recovered from conditioned media (GCase): increased the activity | α-Gal A activity from conditioned media (α-Gal A [1]): increased slightly

Further denaturation of α-Gal A (α-Gal A [2]): prevented further denaturation | α-Gal A activity from conditioned media (α-Gal A [3]): increased the activities | α-Gal A activity from conditioned media (α-Gal A [1]): increased slightly
Compound: OC[C@H]1NC[C@H](O)[C@@H](O)[C@H]1O [DGJ, 1-deoxygalactonorjirimycin]
α-Gal A thermal stability (melting temperature) (α-Gal A (Fabrazyme®)): increases α-Gal A thermal stability in a dose-dependent manner

GAA thermostability (melting temperature) ([4]; 1, 10, 100 μM 1-DNJ-HCl, pH 7.4, dose-dependent): increases GAA thermostability | Further denaturation of GAA [6]: prevented further denaturation | GAA activity recovered from conditioned media (α-Glucosidase (GAA)): little effect
Compound: OC[C@H]1NC[C@H](O)[C@@H](O)[C@@H]1O [DNJ, 1-deoxynorjirimycin]
GAA thermal stability (heat required to denature) ([4]; 100 μM DNJ, pH 7.4, versus formulation without ASSC): required significantly more heat to denature | Effect on loss of GAA enzyme activity [5]: ameliorates the loss of GAA enzyme activity

Stability of recombinant human GCase upon thermal challenge ([7]; 10 μM IFG, pH 7.4 (Example 8)): significantly increases stability | GCase unfolding ([8]; 10 μM IFG, pH 7.4, 37° C., over 24 hours (Example 5)): prevented GCase unfolding | Stability of GCase (unfolding over time) ([8]; 10 μM and 100 μM IFG, neutral pH, 37° C. (Example 9)): significantly increases the stability | Further denaturation of GCase ([8]; 50 μM IFG added at 3 or 6 hours, pH 7.4, 37° C.): prevented further denaturation | Stability of GCase activity over time (GCase (Cerezyme®) [10]): significantly increases the stability | GCase activity recovered from conditioned media (GCase): increased the activity | Acid β-glucosidase activity from conditioned media (acid β-glucosidase): increased the activities
Compound: OC[C@H]1CNC[C@@H](O)[C@@H]1O [IFG, (3R,4R,5R)-5-(hydroxymethyl)-3,4-piperidinediol]
GCase thermal stability (melting temperature) ([7]; 10 and 100 μM IFG, pH 7.4): increases GCase thermal stability in a dose-dependent manner | Stability of GCase activity in human plasma (GCase (Cerezyme®) [9]): significantly increases the stability of GCase and prevents enzyme inactivation

Compound: Myozyme: recombinant human GAA (Myozyme®, Genzyme Corp.)
Stability of Myozyme at lysosomal versus neutral pH (thermal stability assay) ([4]; pH 5.2 versus pH 7.4, no chaperone): much more stable at lysosomal pH (5.2) than at neutral pH (7.4)
